Measured values reported in PubChem BioAssay AID314 (DTP/NCI, 2004).
“And” between values parts separate entries of the source, which are not always exact repeats. Equal entries are not always repeated. Toxic doses and inconclusive results are not listed. Rule for the calls: active = survival T/C of 150% or more; inactive = T/C below 125% in these data. Starred links: 1 amine or outer side, 2 acyl side, 3 side chain; linkers in the order of their positions; H or OH if unused. Positions of bridges follow the written chain, without caps; N, C: chain ends. Non-standard residues stand in square brackets, D forms with d. Residues, ends and D or L forms follow the SMILES beside them. Chains are numbered I, II in the order given. Actinocin(9to1) = Cc1c2oc3c(C)ccc(C(=O)[*:1])c3nc-2c(C(=O)[*:2])c(N)c1=O; aThr = C[C@H](O)[C@H](N)C(=O)O; NMeV = CN[C@H](C(=O)O)C(C)C; Sar = CNCC(=O)O

System: DBA/2 mice, P1534 leukemia ip, survival T/C
Assay: NCI In Vivo Anticancer Drug Screen. Data for tumor model P1534 Leukemia (intraperitoneal) in DBA/2 mice
Settings: endpoint: mean survival time, higher = longer survival
Description: The antitumor activity of compounds was measured in mice bearing transplantable tumors. Survival or tumor size were measured and the results are expressed as the measurement made in the treated group (T) divided by the measurement made in the vehicle treated control group (C). The tumor model used in this assay is P1534 Leukemia (intraperitoneal) in DBA/2 mice

[1] = dose: 12.5 mg/kg/injection, schedule: Q01DX010 (sc), vehicle: steriod suspending solution
[2] = dose: 25.0 mg/kg/injection, schedule: Q01DX010 (sc), vehicle: steriod suspending solution
[3] = dose: 50.0 mg/kg/injection, schedule: Q01DX010 (sc), vehicle: steriod suspending solution
[4] = dose: 10.0 mg/kg/injection, schedule: Q01DX010 (ip), vehicle: saline
[5] = dose: 20.0 mg/kg/injection, schedule: Q01DX010 (ip), vehicle: saline
[6] = dose: 40.0 mg/kg/injection, schedule: Q01DX010 (ip), vehicle: saline
[7] = dose: 50.0 mg/kg/injection, schedule: Q01DX010 (ip), vehicle: saline
[8] = dose: 100.0 mg/kg/injection, schedule: Q01DX010 (ip), vehicle: saline
[9] = dose: 200.0 mg/kg/injection, schedule: Q01DX010 (ip), vehicle: saline
[10] = dose: 0.25 mg/kg/injection, schedule: Q01DX010 (ip), vehicle: saline
[11] = dose: 0.5 mg/kg/injection, schedule: Q01DX010 (ip), vehicle: saline
[12] = dose: 1.0 mg/kg/injection, schedule: Q01DX010 (ip), vehicle: saline
[13] = dose: 12.5 mg/kg/injection, schedule: Q01DX010 (ip), vehicle: saline
[14] = dose: 25.0 mg/kg/injection, schedule: Q01DX010 (ip), vehicle: saline
[15] = dose: 31.3 mg/kg/injection, schedule: Q01DX010 (ip), vehicle: saline
[16] = dose: 62.5 mg/kg/injection, schedule: Q01DX010 (ip), vehicle: saline
[17] = dose: 125.0 mg/kg/injection, schedule: Q01DX010 (ip), vehicle: saline
[18] = dose: 5.0 mg/kg/injection, schedule: Q01DX010 (ip), vehicle: saline
[19] = dose: 250.0 mg/kg/injection, schedule: Q01DX010 (ip), vehicle: saline
[20] = dose: 2.0 mg/kg/injection, schedule: Q01DX010 (ip), vehicle: saline
[21] = dose: 4.0 mg/kg/injection, schedule: Q01DX010 (ip), vehicle: saline
[22] = dose: 8.0 mg/kg/injection, schedule: Q01DX010 (ip), vehicle: saline
[23] = dose: 16.0 mg/kg/injection, schedule: Q01DX010 (ip), vehicle: saline

Measured: T/C

C[C@]12C[C@H](O)[C@H]3[C@@H](CCC4=CC(=O)CC[C@@]43C)[C@@H]1CC[C@@H]2C(=O)CO
inactive: [1] 100 % of control | [2] 100 % of control | [3] 100 % of control | dose: 100.0 mg/kg/injection, schedule: Q01DX010 (sc), vehicle: steriod suspending solution 100 % of control

CCN(CC)CCNc1ccc(C)c2sc3ccccc3c(=O)c12
inactive: [4] 108 % of control | [5] 108 % of control | [6] 112 % of control | dose: 80.0 mg/kg/injection, schedule: Q01DX010 (ip), vehicle: saline 100 % of control

N=C(N)c1ccc(Nc2ccc(C(=N)N)cc2)cc1
inactive: dose: 6.0 mg/kg/injection, schedule: Q01DX010 (ip), vehicle: saline 96 % of control | dose: 12.0 mg/kg/injection, schedule: Q01DX010 (ip), vehicle: saline 89 % of control and 100 % of control

[N-]=[N+]=CC(=O)NCC(=O)NN
inactive: [7] 108 % of control | [8] 100 % of control | [9] 95 % of control | dose: 400.0 mg/kg/injection, schedule: Q01DX010 (ip), vehicle: saline 91 % of control

CCC(=O)NC1=C(N2CC2)C(=O)C(NC(=O)CC)=C(N2CC2)C1=O
inactive: dose: 0.13 mg/kg/injection, schedule: Q01DX010 (ip), vehicle: saline 108 % of control | [10] 108 % of control | [11] 100 % of control | [12] 112 % of control

CN[C@H]1CCc2cc(OC)c(OC)c(OC)c2-c2ccc(OC)c(=O)cc21
inactive: dose: 0.63 mg/kg/injection, schedule: Q01DX010 (ip), vehicle: other 111 % of control and 115 % of control | dose: 1.25 mg/kg/injection, schedule: Q01DX010 (ip), vehicle: other 100 % of control and 103 % of control

COS(C)(=O)=O
inactive: [13] 88 % of control and 100 % of control | [14] 88 % of control | [7] 92 % of control

Cn1c(O)c(N=NC(N)=S)c2ccccc21
inactive: [15] 100 % of control | [16] 100 % of control | [17] 103 % of control

Cn1cnc([N+](=O)[O-])c1Sc1nc(N)nc2nc[nH]c12
inactive: dose: 1.25 mg/kg/injection, schedule: Q01DX010 (ip), vehicle: saline 100 % of control and 108 % of control | dose: 2.5 mg/kg/injection, schedule: Q01DX010 (ip), vehicle: saline 100 % of control and 108 % of control | [18] 88 % of control | [4] 88 % of control

Cc1c2oc3c(C)ccc(C(=O)N[C@@H]4C(=O)N[C@H](C(C)C)C(=O)N5CCC[C@H]5C(=O)N(C)CC(=O)N(C)[C@@H](C(C)C)C(=O)O[C@H]4C)c3nc-2c(C(=O)N[C@@H]2C(=O)N[C@H](C(C)C)C(=O)N3CCC[C@H]3C(=O)N(C)CC(=O)N(C)[C@@H](C(C)C)C(=O)O[C@H]2C)c(N)c1=O (I: [aThr][dV]P[Sar][NMeV] / II: [aThr][dV]P[Sar][NMeV]; ester I:1-I:C, II:1-II:C; linker I:N-II:N via Actinocin(9to1))
inactive: dose: 0.02 mg/kg/injection, schedule: Q01DX010 (ip), vehicle: other 93 % of control | dose: 0.03 mg/kg/injection, schedule: Q01DX010 (ip), vehicle: other 104 % of control | dose: 0.03 mg/kg/injection, schedule: Q01DX010 (ip), vehicle: saline 97 % of control | dose: 0.06 mg/kg/injection, schedule: Q01DX010 (ip), vehicle: other 103 % of control | dose: 0.06 mg/kg/injection, schedule: Q01DX010 (ip), vehicle: saline 100 % of control

CN(Cc1cnc2nc(N)nc(N)c2n1)c1c(Cl)cc(C(=O)NC(CCC(=O)O)C(=O)O)cc1Cl (configuration not stated)
inactive: [5] 120 % of control

CCCCCC(=O)O[C@]1(C(C)=O)CC[C@H]2[C@@H]3CCC4=CC(=O)CC[C@]4(C)[C@H]3CC[C@@]21C
inactive: dose: 250.0 mg/kg/injection, schedule: Q01DX010 (sc), vehicle: steriod suspending solution 103 % of control | dose: 375.0 mg/kg/injection, schedule: Q01DX010 (sc), vehicle: steriod suspending solution 100 % of control | dose: 500.0 mg/kg/injection, schedule: Q01DX010 (sc), vehicle: steriod suspending solution 100 % of control | dose: 750.0 mg/kg/injection, schedule: Q01DX010 (sc), vehicle: steriod suspending solution 107 % of control

COC12C(COC(N)=O)C3=C(C(=O)C(C)=C(N)C3=O)N1CC1C2N1C (configuration not stated)
inactive: dose: 2.5 mg/kg/injection, schedule: Q01DX010 (sc), vehicle: saline 108 % of control | dose: 5.0 mg/kg/injection, schedule: Q01DX010 (sc), vehicle: saline 108 % of control | dose: 10.0 mg/kg/injection, schedule: Q01DX010 (sc), vehicle: saline 100 % of control

CN(N=O)C(=O)NC(C=O)C(O)C(O)C(O)CO (configuration not stated)
inactive: [6] 122 % of control | dose: 90.0 mg/kg/injection, schedule: Q01DX010 (ip), vehicle: saline 100 % of control | dose: 135.0 mg/kg/injection, schedule: Q01DX010 (ip), vehicle: saline 86 % of control

O=C(OCC1OC(n2cnc3c(=S)nc[nH]c32)C(OC(=O)c2ccccc2)C1OC(=O)c1ccccc1)c1ccccc1 (configuration not stated)
inactive: dose: 7.8 mg/kg/injection, schedule: Q01DX010 (ip), vehicle: saline 87 % of control | dose: 15.6 mg/kg/injection, schedule: Q01DX010 (ip), vehicle: saline 91 % of control | [15] 87 % of control | [16] 100 % of control | [17] 91 % of control | [19] 87 % of control

C=C(C(=O)OC1CC2CCC(C1)N2C)c1ccccc1 (configuration not stated)
inactive: [18] 100 % of control

Cn1cnc([N+](=O)[O-])c1Sc1ncnc2nc[nH]c12
inactive: [13] 96 % of control

CN(C)/N=N/c1nc[nH]c1C(N)=O
inactive: [14] 96 % of control | [7] 90 % of control | [8] 86 % of control

O=CCC(O)C(O)C(O)CO (configuration not stated)
inactive: [17] 103 % of control | [19] 92 % of control and 107 % of control | dose: 500.0 mg/kg/injection, schedule: Q01DX010 (ip), vehicle: saline 107 % of control and 115 % of control

O=c1cnn(C2OC(CO)C(O)C2O)c(=O)[nH]1 (configuration not stated)
inactive: [7] 103 % of control and 117 % of control | [8] 96 % of control and 113 % of control | [9] 91 % of control and 108 % of control

C[C@@H](N)[C@@H](O)c1ccccc1
inactive: dose: 3.13 mg/kg/injection, schedule: Q01DX010 (ip), vehicle: saline 96 % of control

N#CCSc1ncnc2nc[nH]c12
inactive: dose: 15.0 mg/kg/injection, schedule: Q01DX010 (ip), vehicle: saline 89 % of control | dose: 30.0 mg/kg/injection, schedule: Q01DX010 (ip), vehicle: saline 100 % of control | dose: 60.0 mg/kg/injection, schedule: Q01DX010 (ip), vehicle: saline 96 % of control and 100 % of control

CC(=O)[C@H]1CC[C@H]2[C@@H]3C[C@H](C)C4=CC(=O)CC[C@]4(C)[C@H]3C(=O)C[C@]12C
inactive: dose: 6.25 mg/kg/injection, schedule: Q01DX010 (sc), vehicle: steriod suspending solution 100 % of control | [1] 107 % of control | [2] 103 % of control | [3] 107 % of control

C[C@@H]1CC[C@@]2(NC1)O[C@H]1C[C@H]3[C@@H]4CC=C5C[C@@H](O)CC[C@]5(C)[C@H]4CC[C@]3(C)[C@H]1[C@@H]2C
inactive: dose: 5.0 mg/kg/injection, schedule: Q01DX010 (sc), vehicle: steriod suspending solution 100 % of control | dose: 10.0 mg/kg/injection, schedule: Q01DX010 (sc), vehicle: steriod suspending solution 106 % of control | dose: 20.0 mg/kg/injection, schedule: Q01DX010 (sc), vehicle: steriod suspending solution 96 % of control | dose: 40.0 mg/kg/injection, schedule: Q01DX010 (sc), vehicle: steriod suspending solution 93 % of control

S=P(N1CC1)(N1CC1)N1CC1
inactive: [10] 91 % of control and 99 % of control | [11] 94 % of control and 100 % of control | [12] 95 % of control | [20] 87 % of control and 89 % of control

CSc1ncnc2c1ncn2C1OC(CO)C(O)C1O (configuration not stated)
inactive: [21] 100 % of control | [22] 100 % of control | [23] 96 % of control and 100 % of control

CCNNC(=O)[C@@H]1[C@H](c2cc(OC)c(OC)c(OC)c2)c2cc3c(cc2[C@H](O)[C@H]1CO)OCO3
inactive: [20] 100 % of control | [21] 100 % of control | [22] 96 % of control and 100 % of control and 111 % of control | [23] 100 % of control (2×) and 103 % of control | dose: 32.0 mg/kg/injection, schedule: Q01DX010 (ip), vehicle: saline 103 % of control
